Data from the supplement of paper PMC10307832.

Tests used:
Assay in all cases: relative viability (nuclei count vs DMSO), 5 days (fraction); higher = more cells survive
Pazopanib + Olaparib = compound: Cc1ccc(Nc2nccc(N(C)c3ccc4c(C)n(C)nc4c3)n2)cc1S(N)(=O)=O [Pazopanib] + O=C(c1cc(Cc2n[nH]c(=O)c3ccccc23)ccc1F)N1CCN(C(=O)C2CC2)CC1 [Olaparib] (partner 8 µM)
Method in brief: (§1)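 Relative viability is defined as nuclei in treated wells over nuclei in vehicle wells. Duplicate plates were run and medians reported. Lung cancer cell lines in 1536-well plates were dosed by pin tool one day after seeding, with one drug or with a fixed anchor-drug dose plus five library-drug doses (not always all listed) in √10 steps, and nuclei were counted after 5 days.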

Pazopanib + Crizotinib = compound: Cc1ccc(Nc2nccc(N(C)c3ccc4c(C)n(C)nc4c3)n2)cc1S(N)(=O)=O [Pazopanib] + C[C@@H](Oc1cc(-c2cnn(C3CCNCC3)c2)cnc1N)c1c(Cl)ccc(F)c1Cl [Crizotinib] (partner 1 µM)
Method in brief: as §1

Ponatinib + Lapatinib = compound: Cc1ccc(C(=O)Nc2ccc(CN3CCN(C)CC3)c(C(F)(F)F)c2)cc1C#Cc1cnc2cccnn12 [Ponatinib] + CS(=O)(=O)CCNCc1ccc(-c2ccc3ncnc(Nc4ccc(OCc5cccc(F)c5)c(Cl)c4)c3c2)o1 [Lapatinib] (partner 2 µM)
Method in brief: as §1

Pazopanib + Decitabine = compound: Cc1ccc(Nc2nccc(N(C)c3ccc4c(C)n(C)nc4c3)n2)cc1S(N)(=O)=O [Pazopanib] + Nc1ncn([C@H]2C[C@H](O)[C@@H](CO)O2)c(=O)n1 [Decitabine] (partner 2 µM)
Method in brief: as §1

Row | Cell Line | relative viability (Pazopanib + Olaparib; first compound 0.01 µM) | relative viability (Pazopanib + Olaparib; first compound 0.03162 µM) | relative viability (Pazopanib + Olaparib; first compound 0.1 µM) | relative viability (Pazopanib + Olaparib; first compound 0.3162 µM) | relative viability (Pazopanib + Olaparib; first compound 1 µM) | relative viability (Pazopanib + Crizotinib; first compound 0.01 µM) | relative viability (Pazopanib + Crizotinib; first compound 0.03162 µM) | relative viability (Pazopanib + Crizotinib; first compound 0.1 µM) | relative viability (Pazopanib + Crizotinib; first compound 0.3162 µM) | relative viability (Pazopanib + Crizotinib; first compound 1 µM) | relative viability (Ponatinib + Lapatinib; first compound 0.002 µM) | relative viability (Ponatinib + Lapatinib; first compound 0.006325 µM) | relative viability (Ponatinib + Lapatinib; first compound 0.06325 µM) | relative viability (Ponatinib + Lapatinib; first compound 0.2 µM) | relative viability (Pazopanib + Decitabine; first compound 0.01 µM) | relative viability (Pazopanib + Decitabine; first compound 0.03162 µM) | relative viability (Pazopanib + Decitabine; first compound 0.1 µM) | relative viability (Pazopanib + Decitabine; first compound 0.3162 µM) | relative viability (Pazopanib + Decitabine; first compound 1 µM)
1 | 201T | 0.863 | 0.865 | 0.85 | 0.825 | 0.822 | 1.05 | 1.07 | 1.03 | 1.06 | 1.06 | 1.04 | 1.03 | 1.09 | 1.02 | 0.831 | 0.886 | 0.866 | 0.879 | 0.838
2 | A549 | 0.248 | 0.301 | 0.283 | 0.297 | 0.36 | 0.813 | 0.855 | 0.709 | 0.692 | 0.732 | 0.946 | 1.03 | 1.05 | 0.88 | – | 0.276 | 0.281 | 0.273 | 0.332
3 | A-427 | 0.729 | 0.8 | 0.758 | 0.812 | 0.791 | 1.01 | 0.934 | 0.967 | 0.788 | 0.818 | 1.05 | 0.96 | 1.05 | 0.98 | 0.554 | 0.538 | 0.554 | 0.533 | 0.613
4 | ABC-1 | 1.01 | 1.15 | 0.959 | 0.946 | 0.782 | 1.27 | 1.04 | 0.873 | 0.986 | 1.11 | 1.1 | 1.17 | 1.2 | 0.864 | 1.01 | 1.12 | 1 | 1.31 | 0.807
5 | BEN | 1.06 | 1.29 | 1.11 | 0.943 | 0.931 | 0.737 | 1.05 | 0.814 | 0.904 | 0.787 | 0.503 | 0.509 | 0.721 | 0.628 | 0.579 | 0.791 | 0.726 | 0.831 | 0.782
6 | CAL-12T | 0.854 | 0.783 | 0.694 | 0.74 | 0.707 | 0.685 | 0.676 | 0.726 | 0.6 | 0.675 | 0.702 | 0.714 | 1 | 0.698 | – | – | – | – | –
7 | COR-L23 | 0.35 | 0.332 | 0.366 | 0.299 | 0.34 | 0.635 | 0.645 | 0.663 | 0.704 | 0.64 | 0.79 | 0.931 | 0.914 | 0.781 | 0.457 | 0.43 | 0.442 | 0.459 | 0.49
8 | COR-L 105 | 0.699 | 0.649 | 0.667 | 0.584 | 0.745 | 0.712 | 0.984 | 0.838 | 0.883 | 0.964 | 0.385 | 0.369 | 0.374 | 0.347 | 0.746 | 0.576 | 0.737 | 0.677 | 0.719
9 | Calu-6 | 0.601 | 0.559 | 0.589 | 0.579 | 0.5 | 0.853 | 0.821 | 0.81 | 0.764 | 0.762 | 1 | 0.954 | 1.22 | 1.03 | – | – | – | – | –
10 | ChaGo-K-1 | 0.473 | 0.447 | 0.413 | 0.413 | 0.357 | 1.18 | 1.19 | 0.997 | 1.23 | 1.06 | – | – | – | – | 0.541 | 0.482 | 0.516 | 0.528 | 0.535
11 | EBC-1 | 0.696 | 0.754 | 0.696 | 0.751 | 0.752 | 0.224 | 0.202 | 0.197 | 0.184 | 0.187 | 0.2 | 0.233 | 0.225 | 0.227 | – | – | – | – | –
12 | EKVX | 0.766 | 1.05 | 0.863 | 0.867 | 0.911 | 0.841 | 1.07 | 0.898 | 0.916 | 0.891 | 0.222 | 0.217 | 0.349 | 0.234 | 0.374 | 0.303 | 0.324 | 0.356 | 0.472
13 | EMC-BAC-2 | – | 0.476 | 0.457 | 0.43 | 0.43 | 0.735 | 0.786 | 0.649 | 0.782 | 0.749 | 0.797 | 0.852 | 0.918 | 0.806 | – | 1.01 | 0.999 | 0.974 | 1.16
14 | EPLC-272H | 0.87 | 0.792 | 1.06 | 0.944 | 0.845 | 0.771 | 1.11 | 1.07 | 0.885 | 1.03 | 0.917 | 1.05 | 0.957 | 0.654 | – | 0.336 | 0.353 | 0.337 | 0.369
15 | H3255 | 0.583 | 0.541 | 0.627 | 0.564 | 0.564 | 0.828 | 0.882 | 0.853 | 0.945 | 0.995 | 0.222 | 0.268 | 0.263 | 0.21 | 0.42 | 0.618 | 0.602 | 0.718 | 0.668
16 | HARA | 0.938 | 0.778 | 0.958 | 1.26 | 0.795 | 1.1 | 1.04 | 1.22 | 1.05 | 1.1 | 0.88 | 0.887 | 0.406 | 0.378 | 0.484 | 0.615 | 0.6 | 0.543 | 0.602
17 | HCC-15 | 0.689 | 0.671 | 0.697 | 0.723 | 0.672 | 0.773 | 0.924 | 1.01 | 0.813 | 0.893 | 0.797 | 0.916 | 0.922 | 0.901 | 0.53 | 0.712 | 0.572 | 0.59 | 0.827
18 | HCC-44 | 0.991 | 0.995 | 1.02 | 0.995 | 1 | 0.839 | 0.779 | 0.86 | 0.795 | 0.823 | 0.969 | 0.903 | 1.12 | 1.06 | 0.913 | 0.949 | 0.941 | 0.984 | 1
